Test results as given in patent US20260284011A1, “COMPOUNDS FOR RESTORING SUSCEPTIBILITY TO BETA-LACTAM ANTIBIOTICS” (UNIVERSITY OF NOTRE DAME DU LAC, priority 2023, published 2026).

Experiments:
HepG2 (liver) cells = experiment: XTT cytotoxicity assay; assay type: cell-based; details: HepG2 cells
Protocol: (§1) We evaluated additionally the in vitro cytotoxicity of compound 4 using the XTT assay with HepG2 (liver) cells. Cell viability was 100% at 64 mg·L^−1.
(§2) XTT assay. Compound 4 was evaluated in triplicate in the XTT assay (XTT cell proliferation assay, Canvax, Spain) with HepG2 cells, as described previously (Eur. J. Med. Chem. 253, 115329 (2023)). GraphPad Prism 5 (San Diego, CA) was used to calculate IC50 values.

XTT cytotoxicity assay = assay type: cell-based; details: human, hepg2 cells; HepG2; at 64 mg·L^−1; read-out: Cell viability
Protocol: as §1, §2

BlaR = BlaR (Staphylococcus aureus, UniProt P18357); experiment: Live-cell fluorescent assay for BlaR inhibition (Venus reporter); assay type: cell-based, S. aureus NRS144pCN52RI-Venus; details: compound at 100 mg/L^−1; CBAP 10 mg·L^−1; fluorescence after 2 h
Excerpt: Live-Cell Fluorescent Assay in Discovery and Mechanism of Action. We conceived of fluorescent constructs in the bla operon, for the purpose of screening (FIG. 2a). We removed the gene for the β-lactamase (blaZ) and put in its place individually the genes for the Green Fluorescent Protein (GFP), Venus (a yellow-fluorescent protein) or mCherry (a red-fluorescent protein) in the template plasmid pCN52. The three plasmids were named pCN52RI, pCN52RI-Venus and pCN52RI-mCherry, respectively. The genes for the fluorescent proteins were transcribed under the promoter of the blaZ gene and were regulated by the proteins BlaR and BlaI, as is the case for the wild-type bla operon.
We transformed separately S. aureus NRS144—a laboratory strain that accepts a foreign gene and harbors neither the bla nor the mec operons—with each of these plasmids. […] When induced, the fluorescent protein is produced and is detected (akin to expression of the resistance genes blaZ or mecA in typical MSSA and MRSA). […] The transformed strains were grown in tryptic soy broth medium for overnight culture and strain maintenance and incubated in cation-adjusted Mueller-Hinton broth medium for inhibitor screening in a 96-well microplate format. The culture without CBAP addition was the negative control. In order to select a desirable reporter construct, we compared the intensity of the fluorescence produced from each construct at the wavelengths given in FIG. 2a using the Cytation-5 multi-mode microplate reader. Among the three constructs, pCN52RI-Venus produced the best fluorescence intensity and pCN52RI-mCherry was the second best (FIG. 4).
The collection of the 100 compounds from the in-silico search was screened against S. aureus NRS144pCN52RI-Venus. The screening strategy was as follows. Bacteria grown to OD600 of 0.25 were exposed concurrently to CBAP (10 mg·L^−1) and the test compound (100 mg·L^−1). Fluorescence was recorded after two hours of incubation. OD600 values were also recorded to identify compounds with inherent antibacterial activity. Compound 1 (Chart 1) emerged—82% diminished fluorescence as an indication of the extent of BlaR inhibition—as a suitable template for structure elaboration. This effort led to the synthesis of several dozen benzimidazole and imidazole compounds. The progression of the iterative design is depicted in Chart 1 for four compounds, culminating in 4. […] The X-ray structures for the complexes of compounds 2 (non-covalent) and 4 (covalent) with the BlaR sensor domain are shown respectively in FIG. 2b (2.0 Å resolution) and FIG. 2c (1.97 Å resolution). Compound 4 makes a covalent bond with the catalytic Ser389 and creates a network of hydrogen bonds with the BlaR active site (FIG. 2c).
Fluorescent assay for screening of BlaR potential inhibitors. A 3-mL portion of lysogeny broth (LB) medium was inoculated with NRS144pCN52RI Venus from frozen stocks and grown overnight at 37° C. The overnight culture was then diluted 1:150 fold with fresh LB containing […] of erythromycin and incubated at 37° C. to an OD600 of 0.3, at which point fluorescence was induced by the addition of CBAP to a final concentration of 10 μg·mL^−1. The culture was aliquoted (99 L) into 96-well plate and 1 L of inhibitor solution (1 mg·mL^−1 in DMSO) was added to each well. Negative control (DMSO without CBAP) and positive control (CBAP without inhibitor) were included. The plate was incubated at 30° C. for 2 h with intermittent shaking. Fluorescence and OD600 measurements were taken by a Cytation-5 multimode microplate reader. Percent inhibition of BlaR and bacterial growth were calculated using absorbance unit (AU) and OD600 values of each sample entered into this formula: […]

additional MRSA strains = experiment: Checkerboard assay; assay type: cell-based, Staphylococcus aureus
Protocol: (§3) Synergy with β-Lactams and Time-Kill Assays. […] In this assay, the antibiotics are compared individually and in combination. The fractional inhibitory concentration (FIC) index is calculated. Synergy is defined as an FIC value ≤0.5, indifference as FIC >0.5 to ≤4, and antagonism as FIC >4.
(§4) Checkerboard assay. […] The final inoculum in each well was 5×10^5 CFU·mL^−1, and the result was read after 24-h incubation at 37° C. The fractional inhibitory concentration (FIC) index was calculated for each combination. An FIC index of ≤0.5 is considered synergistic. The experiment was done in triplicates.

strain NRS21 = experiment: Checkerboard assay; assay type: cell-based, Staphylococcus aureus; details: 24-h incubation
Protocol: as §3, §4

[1] = system: active-site serine penicillin-binding proteins; experiment: Inhibition of penicillin-binding proteins
HI049 = experiment: Checkerboard assay; assay type: cell-based, Staphylococcus aureus
Protocol: as §3, §4

HFH29568 = experiment: Checkerboard assay; assay type: cell-based, Staphylococcus aureus
Protocol: as §3, §4

Sequence of BlaR (P18357 whole entry): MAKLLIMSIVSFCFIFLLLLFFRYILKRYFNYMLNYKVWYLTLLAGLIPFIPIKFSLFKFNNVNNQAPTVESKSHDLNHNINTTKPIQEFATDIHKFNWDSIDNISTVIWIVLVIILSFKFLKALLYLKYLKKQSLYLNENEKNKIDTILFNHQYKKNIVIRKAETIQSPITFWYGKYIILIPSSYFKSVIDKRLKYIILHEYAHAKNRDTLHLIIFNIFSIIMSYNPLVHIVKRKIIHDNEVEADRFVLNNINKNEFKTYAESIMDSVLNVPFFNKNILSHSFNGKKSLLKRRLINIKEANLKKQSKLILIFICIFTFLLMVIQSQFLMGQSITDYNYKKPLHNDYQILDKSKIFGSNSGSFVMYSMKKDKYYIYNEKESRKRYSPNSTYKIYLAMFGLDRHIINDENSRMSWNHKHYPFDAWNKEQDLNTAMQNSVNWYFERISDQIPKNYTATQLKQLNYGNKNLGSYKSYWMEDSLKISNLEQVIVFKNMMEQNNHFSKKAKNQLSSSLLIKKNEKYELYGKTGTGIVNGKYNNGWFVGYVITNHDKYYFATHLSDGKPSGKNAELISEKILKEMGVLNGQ

SMILES	in vitro cytotoxicity (HepG2 (liver) cells)	viability (XTT cytotoxicity assay) [%]	% Inhibition of BlaR (BlaR) [%]	FIC, 4 with OXA, MEM, FOX, or CPT (additional MRSA strains)	FIC index, 4 with FOX (strain NRS21)	FIC index, 4 with OXA (strain NRS21)	inhibitory properties against penicillin-binding proteins [1]	FIC index, 4 with MEM (HI049)	FIC index, 4 with MEM (HFH29568)
N#Cc1ccc2nc(SCB(O)O)n(Cc3ccc(C(F)(F)F)cc3C(F)(F)F)c2c1 [Compound 4, (((1-(2,4-bis(trifluoro-methyl)benzyl)-6-cyano-1H-benzo[d]imidazol-2-yl)thio)methyl)boronic acid]	not toxic to HepG2 cells	100	98	< 0.25	0.25	0.19	modest inhibitory properties	–	–
C[C@@H](O)[C@H]1C(=O)N2C(C(=O)O)=C(S[C@@H]3CN[C@H](C(=O)N(C)C)C3)[C@H](C)[C@H]12 [MEM, meropenem]	–	–	–	–	–	–	–	0.19	0.09
